Measured values from PubChem BioAssay (NCI).
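Dose response: 5 concentrations. Exposure: 48 h. Format: 96-well plates. Endpoint: linear interpolation; highest concentration if not reached. Definition used: TGI = concentration required for complete inhibition of growth.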

Assays:
Test in all cases: NCI tumour cell line growth inhibition, 48 h
SK-MEL-2 melanoma = system: SK-MEL-2 melanoma
UACC-257 melanoma = system: UACC-257 melanoma
SK-MEL-28 melanoma = system: SK-MEL-28 melanoma
HOP-62 NSCLC = system: HOP-62 NSCLC
KM20L2 colon = system: KM20L2 colon
SK-MEL-5 melanoma = system: SK-MEL-5 melanoma
SNB-75 CNS = system: SNB-75 CNS
RXF-631 renal = system: RXF-631 renal
SN12C renal = system: SN12C renal
OVCAR-4 ovarian = system: OVCAR-4 ovarian
HCT-116 colon = system: HCT-116 colon
SF-295 CNS = system: SF-295 CNS
DLD-1 colon = system: DLD-1 colon
SW-620 colon = system: SW-620 colon
CAKI-1 renal = system: CAKI-1 renal
HCT-15 colon = system: HCT-15 colon
CCRF-CEM leukemia = system: CCRF-CEM leukemia
UACC-62 melanoma = system: UACC-62 melanoma
U251 CNS = system: U251 CNS
KM12 colon = system: KM12 colon
K-562 leukemia = system: K-562 leukemia
LOX IMVI melanoma = system: LOX IMVI melanoma
M14 melanoma = system: M14 melanoma
LXFL 529 NSCLC = system: LXFL 529 NSCLC
COLO 205 colon = system: COLO 205 colon
A549 NSCLC = system: A549 NSCLC
TK-10 renal = system: TK-10 renal
UO-31 renal = system: UO-31 renal
HOP-92 NSCLC = system: HOP-92 NSCLC
DMS 273 small cell lung = system: DMS 273 small cell lung
A498 renal = system: A498 renal
IGROV1 ovarian = system: IGROV1 ovarian
SNB-19 CNS = system: SNB-19 CNS
NCI-H460 lung = system: NCI-H460 lung
RXF 393 renal = system: RXF 393 renal
SF-539 CNS = system: SF-539 CNS
M19-MEL melanoma = system: M19-MEL melanoma
MALME-3M melanoma = system: MALME-3M melanoma
HT29 colon = system: HT29 colon
MOLT-4 leukemia = system: MOLT-4 leukemia
EKVX NSCLC = system: EKVX NSCLC
NCI-H23 lung = system: NCI-H23 lung
OVCAR-5 ovarian = system: OVCAR-5 ovarian
OVCAR-3 ovarian = system: OVCAR-3 ovarian
SK-OV-3 ovarian = system: SK-OV-3 ovarian
ACHN renal = system: ACHN renal
DMS 114 small cell lung = system: DMS 114 small cell lung
HCC-2998 colon = system: HCC-2998 colon
HL-60(TB) leukemia = system: HL-60(TB) leukemia
HOP-18 NSCLC = system: HOP-18 NSCLC
RPMI-8226 leukemia = system: RPMI-8226 leukemia
NCI-H522 lung = system: NCI-H522 lung
SR leukemia = system: SR leukemia
SF-268 CNS = system: SF-268 CNS
OVCAR-8 ovarian = system: OVCAR-8 ovarian
NCI-H226 lung = system: NCI-H226 lung
SNB-78 CNS = system: SNB-78 CNS
786-0 renal = system: 786-0 renal
XF 498 CNS = system: XF 498 CNS

Measured: TGI

Cc1cc(OCC(O)CO)ccc1Cl (stereo not drawn)
not listed: SNB-78 CNS | 786-0 renal | XF 498 CNS
> 100 µM: all other assays above

Cc1c(Cl)cccc1NC(=O)C(=O)c1c(O)c2ccc(O)cc2oc1=O
not listed: RXF-631 renal | RPMI-8226 leukemia
> 100 µM: all other assays above
